Assays:
[1] = biological target: GST-tagged KRAS-G12V (2-169) (Homo sapiens, UniProt P01116, G12V); experiment: Nucleotide exchange assay (NEA), SOS-mediated, HTRF, KRAS G12V; assay type: biochemical; details: Table 4; IC50 extracted at 90 min; 80 nM SOS
Method in brief: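 GST-KRAS-G12V (2-169), 0.25 nM, pre-incubated 1 h at RT with compound, then SOS1cat (564-1049) 80 nM and GTP-DY-647P1 150 nM added in HEPES pH 7.3 buffer with MgCl2 and DTT. HTRF via anti-GST Tb cryptate read over 90 min; IC50 from 4-parameter fit at 90 min, blanked to no-SOS reactions.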

[2] = test system: phospho-ERK in GP2D (KRAS-G12D) cells; experiment: pERK In Cell Western (ICW) assay (Method B), GP2D; assay type: cell-based; details: GP2d, 3 h, Table 4
Experimental: (§1) pERK ICW is a high throughput screening assay to evaluate the cellular potency of mutant KRAS small molecule inhibitors. KRAS mutant cell lines AGS, GP2D (KRAS-G12D) as well as SW620 (KRAS-G12V) were purchased from ATCC and maintained respectively in RPMI/DMEM/RPMI medium supplemented with 10% fetal bovine serum.
(§2) Cells grown in exponential phase were trypsinized, resuspended in fresh media, and viable cells were counted using a cell counter with Trypan Blue (BioRad TC20). Cells were seeded into 384-well plate (Greiner 781091) at density of 5,000 cells/well for AGS and 10,000 cells/well for GP2D/SW620 and allowed to grow overnight in a 37° C. CO2 incubator. The next day, compounds were dispensed into wells with a ½ log, 9-point serial dilution using a Tecan D300e dispenser and incubated for 3 hours in a 37° C. CO2 incubator. Cells were then fixed with paraformaldehyde (Electron Microscopy Sciences, 15710, 4% final concentration) for 30 min, permeabilized with wash buffer (1×PBS+0.1% Triton X-100) for 30 min and blocked with Odyssey blocking buffer (Li—COR 927-70001) for 1 hour, all at room temperature (RT). Phospho-ERK antibody (CST 4370L) was diluted 1:500 in Odyssey T20 (PBS) antibody diluent (Li—COR 927-75001) and incubated with cells overnight at 4° C. The next day, plates were washed 5× with wash buffer, incubated with IRDye 800 CW, Goat anti-Rabbit secondary antibody (Li—COR 926-32211, 1:800) and DRAQ5 (CST 4084L, 1:5,000) diluted in Odyssey T20 (PBS) antibody diluent for 1 hour, washed 5×, and imaged on an Odyssey CLx imaging system.
(§3) For data analysis, signal intensities from 800 (phosphor-ERK) and 700 (DRAQ5) channels were extracted, and phospho-ERK signals were normalized to DRAQ5 signals for each well and percent of blank control values were computed. Data were then imported into Graphpad Prism to compute half-maximal inhibitory concentrations (IC50) using a 4-parameter variable slope model. Z-factor for each plate was computed from signals derived from wells treated with either DMSO or 5 μM of control compound. AGS pERK ICW (Method B) IC50 (uM) values of selected compounds are depicted in Table 2 with compounds having a value ≥0.001 uM to 0.01 uM as ++++; ≥0.01 uM to 0.1 uM as +++; ≥0.1 uM to 1 uM as ++; ≥1 uM to 10 uM as + and ≥10 uM as NA.

[3] = biological target: GST-tagged KRAS-G12D (2-169) (Homo sapiens, UniProt P01116, G12D); experiment: Nucleotide exchange assay (NEA), SOS-mediated, HTRF, KRAS G12D; assay type: biochemical; details: Table 4; IC50 extracted at 30 min; 20 nM SOScat; read-out: NEA G12D IC50
Sequence of GST-tagged KRAS-G12D (2-169) (P01116 2-169 isoform P01116-2 G12D): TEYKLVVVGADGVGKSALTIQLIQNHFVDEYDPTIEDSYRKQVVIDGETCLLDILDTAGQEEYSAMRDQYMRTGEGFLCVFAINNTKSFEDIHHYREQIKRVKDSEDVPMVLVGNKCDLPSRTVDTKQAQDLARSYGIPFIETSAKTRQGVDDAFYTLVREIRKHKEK
Method in brief: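 Compound preincubated 1 h at RT with 0.25 nM GST-KRAS-G12D (2-169) and anti-GST Tb donor, then 20 nM SOS1cat (564-1049) and 150 nM GTP-DY-647P1 added; pH 7.3 HEPES buffer with MgCl2 and DTT. HTRF monitored at RT; % inhibition versus DMSO and no-SOS blank, 4-parameter IC50 taken at 30 min.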

[4] = test system: phospho-ERK in SW620 (KRAS-G12V) cells; experiment: pERK In Cell Western (ICW) assay (Method B), SW620; assay type: cell-based; details: Homo sapiens, SW-620, 3 h, Table 4
Experimental: as §1, §2, §3

Sequence of GST-tagged KRAS-G12V (2-169) (P01116 2-169 isoform P01116-2 G12V): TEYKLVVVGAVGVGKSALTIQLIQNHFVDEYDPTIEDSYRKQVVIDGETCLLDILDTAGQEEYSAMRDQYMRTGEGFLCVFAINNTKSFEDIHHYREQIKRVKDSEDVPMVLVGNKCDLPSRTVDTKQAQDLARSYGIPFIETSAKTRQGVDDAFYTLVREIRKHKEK

| SMILES | IC50 [1] [nM] | IC50 [2] [nM] | IC50 [3] [nM] | IC50 [4] [nM] |
| --- | --- | --- | --- | --- |
| N#Cc1c(N)sc2c1C1(CC2)CN(c2nc(OC[C@@]34CCCN3C[C@H](F)C4)nc(N3CCc4noc(N)c4C3)n2)C1 [Compound 31, 2-amino-1′-[4-(3-amino-6,7-dihydro-4H-isoxazolo[4,3-c]pyridin-5-yl)-6-[[(2R,8S)-2-fluoro-1,2,3,5,6,7-hexahydropyrrolizin-8-yl]methoxy]-1,3,5-triazin-2-yl]spiro[5,6-dihydrocyclopenta[b]thiophene-4,3′-azetidine]-3-carbonitrile] | 100 to 1000 | 100 to 1000 | 10 to 100 |  |
| N#CCC1C=C(F)CN(c2nc(OC[C@@]34CCCN3C[C@H](F)C4)nc(N3CC4(CCc5sc(N)c(C#N)c54)C3)n2)C1 (stereo partly drawn) [Compound 25, 2-amino-1′-[4-[3-(cyanomethyl)-5-fluoro-3,6-dihydro-2H-pyridin-1-yl]-6-[[(2R,8S)-2-fluoro-1,2,3,5,6,7-hexahydropyrrolizin-8-yl]methoxy]-1,3,5-triazin-2-yl]spiro[5,6-dihydrocyclopenta[b]thiophene-4,3′-azetidine]-3-carbonitrile] | 10 to 100 | 100 to 1000 | 10 to 100 |  |
| CN(C)CC1(COc2nc(N3CC4(CCc5sc(N)c(C#N)c54)C3)nc(N3CCC[C@@](C)(O)C3)n2)CC1(F)F (stereo partly drawn) [Compound 34, 2-amino-1′-[4-[[1-[(dimethylamino)methyl]-2,2-difluoro-cyclopropyl]methoxy]-6-[(3R)-3-hydroxy-3-methyl-1-piperidyl]-1,3,5-triazin-2-yl]spiro[5,6-dihydrocyclopenta[b]thiophene-4,3′-azetidine]-3-carbonitrile] | < 10 | 10 to 100 | < 10 |  |
| N#Cc1c(N)sc2c1C1(CN(c3nc(OCC4(CN5CCOCC5)CC4)nc(N4C[C@@H]5CC[C@@H](N5)C4CO)n3)C1)SC2 (stereo partly drawn) [Compound 188, 2′-amino-1-(4-((1R,5S)-2-(hydroxymethyl)-3,8-diazabicyclo[3.2.1]octan-3-yl)-6-((1-(morpholinomethyl)cyclopropyl)methoxy)-1,3,5-triazin-2-yl)-6′H-spiro[azetidine-3,4′-thieno[3,4-b]thiophene]-3′-carbonitrile] | 10 to 100 | < 10 | < 10 |  |
| C[C@@H]1[C@H](CO)CCCN1c1nc(OC[C@@]23CCCN2C[C@H](F)C3)nc(N2CC3(CCc4sc(N)c(C#N)c43)C2)n1 (racemic) [Compound 24, 2-amino-1′-[4-[[(2R,8S)-2-fluoro-1,2,3,5,6,7-hexahydropyrrolizin-8-yl]methoxy]-6-[rac-(2R,3R)-3-(hydroxymethyl)-2-methyl-1-piperidyl]-1,3,5-triazin-2-yl]spiro[5,6-dihydrocyclopenta[b]thiophene-4,3′-azetidine]-3-carbonitrile] | 100 to 1000 | 1000 to 20000 | 100 to 1000 |  |
| CCN(c1nc(OC[C@@]23CCCN2C[C@H](F)C3)nc(N2CC3(C2)SCc2sc(N)c(C#N)c23)n1)C(C)CC#N (stereo partly drawn) [Compound 254, 2-amino-1′-[4-[(2-cyano-1-methyl-ethyl)-ethyl-amino]-6-[[(2R,8S)-2-fluoro-1,2,3,5,6,7-hexahydropyrrolizin-8-yl]methoxy]-1,3,5-triazin-2-yl]spiro[6H-thieno[3,4-b]thiophene-4,3′-azetidine]-3-carbonitrile; formic acid] | < 10 |  | < 10 | 100 to 1000 |
| N#Cc1c(N)sc2c1C1(CC2)CN(c2nc(OC[C@@]34CCCN3C[C@H](F)C4)nc(N3C[C@H](O)C[C@@H](O)C3)n2)C1 [Compound 26, 2-amino-1′-[4-[(3R,5R)-3,5-dihydroxy-1-piperidyl]-6-[[(2R,8S)-2-fluoro-1,2,3,5,6,7-hexahydropyrrolizin-8-yl]methoxy]-1,3,5-triazin-2-yl]spiro[5,6-dihydrocyclopenta[b]thiophene-4,3′-azetidine]-3-carbonitrile] | 10 to 100 | ≥ 20000 | 10 to 100 |  |
| C[C@H](c1cccnc1N)N(C)c1nc(OC[C@@]23CCCN2C[C@H](F)C3)nc(N2CCC(c3c(Cl)sc(N)c3C#N)C2)n1 (stereo partly drawn) [Compound 191, 2-amino-4-[1-[4-[[(1R)-1-(2-amino-3-pyridyl)ethyl]-methyl-amino]-6-[[(2R,8S)-2-fluoro-1,2,3,5,6,7-hexahydropyrrolizin-8-yl]methoxy]-1,3,5-triazin-2-yl]pyrrolidin-3-yl]-5-chloro-thiophene-3-carbonitrile] | < 10 |  | 10 to 100 | 10 to 100 |
| C[C@H](c1cccnc1N)N(CC#N)c1nc(OC[C@@]23CCCN2C[C@H](F)C3)nc(N2CC3(C2)SCc2sc(N)c(C#N)c23)n1 [Compound 246, 2′-amino-1-(4-(((R)-1-(2-aminopyridin-3-yl)ethyl)(cyanomethyl)amino)-6-(((2R,7aS)-2-fluorotetrahydro-TH-pyrrolizin-7a(5H)-yl)methoxy)-1,3,5-triazin-2-yl)-6′H-spiro[azetidine-3,4′-thieno[3,4-b]thiophene]-3′-carbonitrile] | < 10 |  | < 10 | < 10 |
| CC(c1c[nH]nn1)N(CC#N)c1nc(OC[C@@]23CCCN2C[C@H](F)C3)nc(N2CC3(C2)SCc2sc(N)c(C#N)c23)n1 (stereo partly drawn) [Compound 250, 2-amino-1′-[4-[cyanomethyl-[1-(1H-triazol-4-yl)ethyl]amino]-6-[[(2R,8S)-2-fluoro-1,2,3,5,6,7-hexahydropyrrolizin-8-yl]methoxy]-1,3,5-triazin-2-yl]spiro[6H-thieno[3,4-b]thiophene-4,3′-azetidine]-3-carbonitrile] | < 10 |  | < 10 | 100 to 1000 |
| C[C@@]1(O)CCCN(c2nc(OC[C@@]34CCCN3C[C@H](F)C4)nc(N3CC4(CCCc5sc(N)c(C#N)c54)C3)n2)C1 [Compound 30, 2-amino-1′-[4-[[(2R,8S)-2-fluoro-1,2,3,5,6,7-hexahydropyrrolizin-8-yl]methoxy]-6-[(3R)-3-hydroxy-3-methyl-1-piperidyl]-1,3,5-triazin-2-yl]spiro[6,7-dihydro-5H-benzothiophene-4,3′-azetidine]-3-carbonitrile] | 10 to 100 | 100 to 1000 | 10 to 100 |  |
| C#CCN(CC#N)c1nc(OC[C@@]23CCCN2C[C@H](F)C3)nc(N2CC3(C2)SCc2sc(N)c(C#N)c23)n1 [Compound 243, 2-amino-1′-[4-[cyanomethyl(prop-2-ynyl)amino]-6-[[(2R,8S)-2-fluoro-1,2,3,5,6,7-hexahydropyrrolizin-8-yl]methoxy]-1,3,5-triazin-2-yl]spiro[6H-thieno[3,4-b]thiophene-4,3′-azetidine]-3-carbonitrile] | < 10 |  | < 10 | 100 to 1000 |
| CCN(c1nc(OC[C@@]23CCCN2C[C@H](F)C3)nc(N2CC3(C2)SCc2sc(N)c(C#N)c23)n1)[C@H](C)C(N)=O [Compound 235, (2R)-2-[[4-(2-amino-3-cyano-spiro[6H-thieno[3,4-b]thiophene-4,3′-azetidine]-1′-yl)-6-[[(2R,8S)-2-fluoro-1,2,3,5,6,7-hexahydropyrrolizin-8-yl]methoxy]-1,3,5-triazin-2-yl]-ethyl-amino]propanamide] | < 10 |  | < 10 | 100 to 1000 |
| N#CCN(CC(F)F)c1nc(OC[C@@]23CCCN2C[C@H](F)C3)nc(N2CC3(C2)SCc2sc(N)c(C#N)c23)n1 [Compound 242, 2-amino-1′-[4-[cyanomethyl(2,2-difluoroethyl)amino]-6-[[(2R,8S)-2-fluoro-1,2,3,5,6,7-hexahydropyrrolizin-8-yl]methoxy]-1,3,5-triazin-2-yl]spiro[6H-thieno[3,4-b]thiophene-4,3′-azetidine]-3-carbonitrile] | < 10 |  | < 10 | 10 to 100 |
